Series [1] concerns navicular disease. To be noted: cited from earlier work.
The test system of series [2] is navicular disease. Description: Conventional navicular disease treatments (background discussion). The series is classed as in vivo. To be noted: horse #18 (Molson), intermittent lameness over previous 5 months. An excerpt: To illustrate the advantages of pentoxifylline over existing navicular disease treatments, the following conventional treatments will be discussed herein.

On to `CC(COc1ccccc1)NC(C)C(O)c1ccc(O)cc1` (stereo not shown) [Isoxsuorine], for which, in series [1] (generic, unpredictable results), the efficacy entry is listed as “Approximately 50%”.
For `CC(=O)CC(c1ccccc1)c1c(O)c2ccccc2oc1=O` (racemic) [Warfarin], the safety disadvantage result in series [1] (accidental lacerations or injuries) is listed as “can be fatal due to hemmorrhage”.
As for `CCCCC1C(=O)N(c2ccccc2)N(c2ccccc2)C1=O` [phenylbutazone], in series [1] (in vivo), the side effects entry is “risk of gastric and cecal ulcers and kidney damage”. The “response to previous treatment” value in series [2] is “responded”.

The record behind these values is patent US5077296A, “Method for treating equine navicular disease with pentoxifylline, and composition containing pentoxifylline for administrating to horses” (priority 1987, dated 1991).
